Assay results as given in a compilation of properties of binary mixtures (doi:10.1016/j.jct.2022.106952).

Assay: xn = mol fraction of the nth substance listed
Settings: 101.3 kPa

CCCC[n+]1ccn(C)c1.F[P-](F)(F)(F)(F)F + CCCCCCCCN1CCCC1=O
speed of sound (308.15 K, x1 = 1): 1419.8 m/s
speed of sound (313.15 K, x1 = 1): 1408.2 m/s
speed of sound (318.15 K, x1 = 1): 1396.8 m/s
speed of sound (323.15 K, x1 = 1): 1385.6 m/s

CCCCCCCCN1CCCC1=O + CCCC[n+]1ccn(C)c1.F[P-](F)(F)(F)(F)F
speed of sound (303.15 K, x2 = 0): 1433.6 m/s
speed of sound (303.15 K, x2 = 0.0531): 1430 m/s
speed of sound (303.15 K, x2 = 0.1034): 1425.4 m/s
speed of sound (303.15 K, x2 = 0.1513): 1421.4 m/s
speed of sound (303.15 K, x2 = 0.2034): 1417.6 m/s
speed of sound (303.15 K, x2 = 0.3009): 1412.1 m/s
speed of sound (303.15 K, x2 = 0.5996): 1407.7 m/s
speed of sound (303.15 K, x2 = 0.6991): 1410.4 m/s
speed of sound (303.15 K, x2 = 0.8029): 1415.4 m/s
speed of sound (303.15 K, x2 = 0.8927): 1421.5 m/s
speed of sound (303.15 K, x2 = 0.9513): 1426.6 m/s
speed of sound (308.15 K, x2 = 0): 1416.3 m/s
speed of sound (308.15 K, x2 = 0.0531): 1413.2 m/s
speed of sound (308.15 K, x2 = 0.1034): 1408.9 m/s
speed of sound (308.15 K, x2 = 0.1513): 1405.2 m/s
speed of sound (308.15 K, x2 = 0.2034): 1401.8 m/s
speed of sound (308.15 K, x2 = 0.405): 1393.9 m/s
speed of sound (308.15 K, x2 = 0.5042): 1393.1 m/s
speed of sound (308.15 K, x2 = 0.6991): 1397.4 m/s
speed of sound (308.15 K, x2 = 0.8029): 1402.9 m/s
speed of sound (308.15 K, x2 = 0.8451): 1405.7 m/s
speed of sound (308.15 K, x2 = 0.8927): 1409.4 m/s
speed of sound (308.15 K, x2 = 0.9513): 1414.7 m/s
speed of sound (313.15 K, x2 = 0): 1399.1 m/s
speed of sound (313.15 K, x2 = 0.0531): 1396.4 m/s
speed of sound (313.15 K, x2 = 0.1034): 1392.5 m/s
speed of sound (313.15 K, x2 = 0.1513): 1389.2 m/s
speed of sound (313.15 K, x2 = 0.2034): 1386.2 m/s
speed of sound (313.15 K, x2 = 0.3009): 1382 m/s
speed of sound (313.15 K, x2 = 0.405): 1379.6 m/s
speed of sound (313.15 K, x2 = 0.5042): 1379.4 m/s
speed of sound (313.15 K, x2 = 0.6991): 1384.6 m/s
speed of sound (313.15 K, x2 = 0.8029): 1390.6 m/s
speed of sound (313.15 K, x2 = 0.8927): 1397.5 m/s
speed of sound (313.15 K, x2 = 0.9513): 1403 m/s
speed of sound (318.15 K, x2 = 0): 1382.1 m/s
speed of sound (318.15 K, x2 = 0.0531): 1379.8 m/s
speed of sound (318.15 K, x2 = 0.1034): 1376.3 m/s
speed of sound (318.15 K, x2 = 0.1513): 1373.3 m/s
speed of sound (318.15 K, x2 = 0.2034): 1370.7 m/s
speed of sound (318.15 K, x2 = 0.3009): 1367.1 m/s
speed of sound (318.15 K, x2 = 0.405): 1365.4 m/s
speed of sound (318.15 K, x2 = 0.5042): 1365.8 m/s
speed of sound (318.15 K, x2 = 0.5996): 1367.9 m/s
speed of sound (318.15 K, x2 = 0.6991): 1372.1 m/s
speed of sound (318.15 K, x2 = 0.8451): 1381.7 m/s
speed of sound (318.15 K, x2 = 0.9513): 1391.4 m/s
speed of sound (323.15 K, x2 = 0): 1365.2 m/s
speed of sound (323.15 K, x2 = 0.0531): 1363.3 m/s
speed of sound (323.15 K, x2 = 0.1034): 1360.2 m/s
speed of sound (323.15 K, x2 = 0.2034): 1355.3 m/s
speed of sound (323.15 K, x2 = 0.3009): 1352.4 m/s
speed of sound (323.15 K, x2 = 0.405): 1351.4 m/s
speed of sound (323.15 K, x2 = 0.5042): 1352.3 m/s
speed of sound (323.15 K, x2 = 0.6991): 1359.6 m/s
speed of sound (323.15 K, x2 = 0.8029): 1366.5 m/s
speed of sound (323.15 K, x2 = 0.8451): 1369.9 m/s
speed of sound (323.15 K, x2 = 0.8927): 1374.2 m/s
speed of sound (323.15 K, x2 = 0.9513): 1380.1 m/s
